Here are results for one compound from patent publication US9090874B2, “Olfactory epithelial-derived stem cells and methods of use therefor” (University of Louisville Research Foundation, Inc., priority 2008, dated 2015).

The test deals with neurosphere subcultures. The test can be described thus: Exposure of neurosphere subcultures to dibutyryl cAMP. The format is cell-based. The conditions noted are these: media containing 2.5 mM dibutyryl cAMP.

`CCCC(=O)Nc1ncnc2c1ncn2[C@@H]1O[C@@H]2COP(=O)(O)O[C@H]2[C@H]1OC(=O)CCC` [dibutyryl cAMP]: the “levels of α-internexin” value is recorded as “increases” and the mitotic activity entry is reported as “drastically decreases”.
